Source: paper PMC5201331, “Subchronic Toxicities of HZ1006, a Hydroxamate-Based Histone Deacetylase Inhibitor, in Beagle Dogs and Sprague-Dawley Rats” (International Journal of Environmental Research and Public …, 2016)

How the values were obtained:
[1] = Subchronic toxicity test in Beagle dogs: overall (NOAEL, urinalysis, ECG); assay type: in vivo; details: both sexes, beagle, dog, in vivo, daily oral administration, 28 days, read-out: NOAEL (No Observed Adverse Effect Level)
Experimental: (§1) HZ1006 was administered orally to dogs (four/sex/group) at doses of 80, 40, 20, 5 and 0 (control) mg/kg/day, and the dosage volume was 2 mL/kg. The dogs received test doses with the exact amounts on a weekly basis based on current body weights. […] The other dogs in the above groups were dissected on the planned days. For the other groups, half of the dogs were anatomized on d28 and the remaining half on d42.
(§2) Clinical symptoms and mortality were examined at least twice daily during the 42-day period, which included any changes in reaction to treatment, behavior, illness, food consumption, and body weight. Breathing rates, rectal temperature and pupil changes in the Beagle dogs were assessed once every 2 weeks.
(§3) The parameters of the dogs’ ECG included the Heart rate, Time at R, P Duration, P-R interval, T Duration, QRS Durations, Q-T Intervals and ST Segment, which were examined by an ECG6511 ECG instrument (manufactured by Shanghai Kohden Medical Electronic Instrument Corp., Shanghai, China) on d0 (twice), d14, d28 and d42 using the II limb lead method.
(§4) A Micro AUTION MA-4260 Autoanalyzer from Arkray Global Business, Inc. (kyoto, Japan), was used to analyze the animal urine samples. Parameters such as pH, specific gravity, nitrites, leukocytes, glucose, protein, urobilinogen, ketones, occult blood, bilirubin, and hemoglobin were tested.

[2] = tested on: Beagle dogs; experiment: as above; assay type: in vivo
Experimental: as §1, §2, §3, §4

[3] = tested on: SD rats; experiment: Subchronic toxicity test in SD rats: organ weights; assay type: in vivo, Sprague-Dawley (SD) rats; details: for Adrenal gland absolute weight / Brain relative weight: female rats; for Kidney relative weight / Testis absolute weight: male rats
Experimental: The rats that were judged suitable for the subchronic toxicity study were randomly divided into four groups (10 rats/sex/group). The rats received the test sample by gavage once daily for 28 days. HZ1006 was administered to the rats at doses of 120, 60, 20 and 0 (control) mg/kg, and the dosage volume was 5 mL/kg. Half of the 80 rats (half male and half female) were selected randomly according to body weight and dissected at d28. The remaining rats were dissected at […]. After euthanasia, the following organs or tissues were isolated from the dogs and rats: skin, abnormal lesions, spleen, mammary glands, jejunum, pancreas, ileum, duodenum, stomach, colon, cecum, lymph nodes, mesenteric salivary glands, liver, submandibular lymph nodes, thymus, sternum, lungs, heart, esophagus, trachea, tongue, thyroid with parathyroid gland, sciatic nerve, aorta, femurs, skeletal muscle, pituitary gland, brain, kidneys, eyes, urinary bladder, adrenal glands, uterus, ovaries, testes, epididymis and prostate. The weights of the animal organs, such as the liver, spleen, heart, thymus, brain, lungs, adrenal glands, kidneys, uterus, ovaries, epididymis and testes, were tested using an electronic balance. The organs or tissues were fixed using 10% neutral buffered formalin and were then gradient dehydrated, embedded, sectioned, and stained with routine hematoxylin-eosin prior to histopathological observations.

[4] = Toxicokinetics in Beagle dogs; assay type: in vivo; details: for accumulation coefficient R: after 28 days compared with d1; for Tmax / Cmax / half-life / AUC(0-inf): both sexes, Beagle, dog
Experimental: as §1
The dogs’ blood samples were obtained on the 1st day, the 14th day and the last day (d28) of dosage for plasma HZ1006 content analyses at 0 (1st day only), 1/6, 0.5, 1, 2, 4, 8, 12 and 24 h after dosing, and the blood samples of the rats were acquired on the 1st day and 28th day at the same time as those of the dogs, which were handled and analyzed according to the procedure reported by Zhang et al..

[5] = 20 mg/kg oral daily, d42 (recovery)
[6] = 60 mg/kg oral daily, d42 (recovery)
[7] = 120 mg/kg oral daily, d42 (recovery)
[8] = plasma, po, 5 mg/kg/day, 5 mg/kg/day oral, 14 days
[9] = plasma, po, 5 mg/kg/day, 5 mg/kg/day oral, 28 days
[10] = plasma, po, 5 mg/kg/day, 5 mg/kg/day oral, single
[11] = plasma, po, 20 mg/kg/day, 20 mg/kg/day oral, 14 days
[12] = plasma, po, 20 mg/kg/day, 20 mg/kg/day oral, 28 days
[13] = plasma, po, 20 mg/kg/day, 20 mg/kg/day oral, single
[14] = plasma, po, 40 mg/kg/day, 40 mg/kg/day oral, 14 days
[15] = plasma, po, 40 mg/kg/day, 40 mg/kg/day oral, 28 days
[16] = plasma, po, 40 mg/kg/day, 40 mg/kg/day oral, single
[17] = plasma, po, 80 mg/kg/day, 80 mg/kg/day oral, 14 days
[18] = plasma, po, 80 mg/kg/day, 80 mg/kg/day oral, 28 days
[19] = plasma, po, 80 mg/kg/day, 80 mg/kg/day oral, single

CCCCCCCNc1cc(/C=C/C(=O)NO)ccc1OCCN(CC)CC [HZ1006]
NOAEL at 28 days [1]: 5 mg/kg
ECG examination ([2]; 5-80 mg/kg/day oral): no dose-related changes
urinalysis ([2]; 5-80 mg/kg/day oral): no dose-related changes
minimum toxic dose ([2]; daily oral administration, 28 days): 20 mg/kg
Adrenal gland absolute weight ([3]; 20 mg/kg oral daily, d28): 0.081 ± 0.005 g
Brain relative weight ([3]; 20 mg/kg oral daily, d28): 0.728 ± 0.047 g/100 g
Adrenal gland absolute weight [3, 5]: 0.072 ± 0.008 g
Brain relative weight [3, 5]: 0.768 ± 0.020 g/100 g
Adrenal gland absolute weight ([3]; 60 mg/kg oral daily, d28): 0.068 ± 0.003 g
Brain relative weight ([3]; 60 mg/kg oral daily, d28): 0.799 ± 0.062 g/100 g
Adrenal gland absolute weight [3, 6]: 0.071 ± 0.012 g
Brain relative weight [3, 6]: 0.768 ± 0.068 g/100 g
Adrenal gland absolute weight ([3]; 120 mg/kg oral daily, d28): 0.066 ± 0.008 g
Brain relative weight ([3]; 120 mg/kg oral daily, d28): 0.834 ± 0.042 g/100 g
Adrenal gland absolute weight [3, 7]: 0.069 ± 0.011 g
Brain relative weight [3, 7]: 0.745 ± 0.089 g/100 g
Kidney relative weight ([3]; 20 mg/kg oral daily, d28): 0.707 ± 0.024 g/100 g
Testis absolute weight ([3]; 20 mg/kg oral daily, d28): 2.707 ± 0.090 g
Kidney relative weight [3, 5]: 0.693 ± 0.033 g/100 g
Testis absolute weight [3, 5]: 2.798 ± 0.112 g
Kidney relative weight ([3]; 60 mg/kg oral daily, d28): 0.705 ± 0.039 g/100 g
Testis absolute weight ([3]; 60 mg/kg oral daily, d28): 2.624 ± 0.170 g
Kidney relative weight [3, 6]: 0.687 ± 0.020 g/100 g
Testis absolute weight [3, 6]: 2.787 ± 0.097 g
Kidney relative weight ([3]; 120 mg/kg oral daily, d28): 0.673 ± 0.023 g/100 g
Testis absolute weight ([3]; 120 mg/kg oral daily, d28): 2.666 ± 0.115 g
Kidney relative weight [3, 7]: 0.624 ± 0.053 g/100 g
Testis absolute weight [3, 7]: 2.723 ± 0.161 g
accumulation coefficient R ([4]; 5 mg/kg/day oral): 1.3 ± 1.2
accumulation coefficient R ([4]; 80 mg/kg/day oral): 1.2 ± 0.9
Tmax ([4]; in vivo, 20 mg/kg/day oral, 28 days): 3.17 ± 1.33 h
Cmax ([4]; in vivo, 40 mg/kg/day oral, single): 0.456 ± 0.376 µg/mL
half-life ([4]; in vivo, 80 mg/kg/day oral, 28 days): 7.56 ± 3.27 h
AUC(0-inf) [4, 8]: 0.199 ± 0.0696 µg·h/mL
Cmax [4, 8]: 0.0301 ± 0.0142 µg/mL
Tmax [4, 8]: 4.2 ± 2.01 h
half-life [4, 8]: 4.75 ± 1.23 h
AUC(0-inf) [4, 9]: 0.616 ± 0.242 µg·h/mL
Cmax [4, 9]: 0.0657 ± 0.042 µg/mL
Tmax [4, 9]: 4.33 ± 2.94 h
half-life [4, 9]: 7.34 ± 1.02 h
AUC(0-inf) [4, 10]: 0.193 ± 0.0646 µg·h/mL
Cmax [4, 10]: 0.0356 ± 0.0151 µg/mL
Tmax [4, 10]: 3.67 ± 1.52 h
half-life [4, 10]: 4.4 ± 0.61 h
AUC(0-inf) [4, 11]: 0.62 ± 0.249 µg·h/mL
Cmax [4, 11]: 0.0681 ± 0.0228 µg/mL
Tmax [4, 11]: 4 ± 2.19 h
half-life [4, 11]: 5.21 ± 0.53 h
AUC(0-inf) [4, 12]: 0.389 ± 0.104 µg·h/mL
Cmax [4, 12]: 0.0552 ± 0.0218 µg/mL
half-life [4, 12]: 5.35 ± 0.73 h
AUC(0-inf) [4, 13]: 1.19 ± 0.32 µg·h/mL
Cmax [4, 13]: 0.139 ± 0.0734 µg/mL
Tmax [4, 13]: 3.5 ± 2.51 h
half-life [4, 13]: 5.54 ± 1.53 h
AUC(0-inf) [4, 14]: 1.02 ± 0.977 µg·h/mL
Cmax [4, 14]: 0.199 ± 0.175 µg/mL
Tmax [4, 14]: 1.9 ± 1.34 h
half-life [4, 14]: 7.34 ± 3.82 h
AUC(0-inf) [4, 15]: 0.928 ± 0.297 µg·h/mL
Cmax [4, 15]: 0.162 ± 0.102 µg/mL
Tmax [4, 15]: 2.2 ± 1.1 h
half-life [4, 15]: 5.08 ± 1.04 h
AUC(0-inf) [4, 16]: 2.5 ± 1.49 µg·h/mL
Tmax [4, 16]: 2.7 ± 2.7 h
half-life [4, 16]: 6.93 ± 3.03 h
AUC(0-inf) [4, 17]: 1.55 ± 0.758 µg·h/mL
Cmax [4, 17]: 0.174 ± 0.123 µg/mL
Tmax [4, 17]: 4.43 ± 3.53 h
half-life [4, 17]: 7.23 ± 3.45 h
AUC(0-inf) [4, 18]: 1.82 ± 0.57 µg·h/mL
Cmax [4, 18]: 0.18 ± 0.0834 µg/mL
Tmax [4, 18]: 4.6 ± 3.29 h
AUC(0-inf) [4, 19]: 3.87 ± 2.63 µg·h/mL
Cmax [4, 19]: 0.365 ± 0.257 µg/mL
Tmax [4, 19]: 3.5 ± 2.51 h
half-life [4, 19]: 6.74 ± 2.2 h
